# Laboratory results published in ChEMBL document CHEMBL2380240, “Discovery, synthesis, selectivity modulation and DMPK characterization of 5-azaspiro[2.4]heptanes as potent orexin receptor antagonists” (Bioorg Med Chem Lett, 2013).
# Target: T1, CYP2C19 (Homo sapiens, UniProt P33261)
# Assay: Inhibition of human recombinant CYP2C19 at 3 uM by fluorimetric assay
# Type: ADME
# Conditions: not given; call rule not given here
# T1 sequence (P33261 whole entry): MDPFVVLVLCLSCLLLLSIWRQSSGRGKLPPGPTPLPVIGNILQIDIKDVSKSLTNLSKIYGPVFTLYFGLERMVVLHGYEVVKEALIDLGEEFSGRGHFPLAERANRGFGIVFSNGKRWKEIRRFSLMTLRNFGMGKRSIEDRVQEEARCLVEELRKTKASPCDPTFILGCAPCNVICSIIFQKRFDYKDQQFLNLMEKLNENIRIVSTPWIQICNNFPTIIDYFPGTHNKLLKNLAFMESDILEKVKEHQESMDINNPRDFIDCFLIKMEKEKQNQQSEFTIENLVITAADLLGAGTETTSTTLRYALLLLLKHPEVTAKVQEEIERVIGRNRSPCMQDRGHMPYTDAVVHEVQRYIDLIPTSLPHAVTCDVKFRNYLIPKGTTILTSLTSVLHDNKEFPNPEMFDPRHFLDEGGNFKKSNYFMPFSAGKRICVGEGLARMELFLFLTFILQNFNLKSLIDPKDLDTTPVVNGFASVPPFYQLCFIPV
row,inhibition at 3 µM [%],SMILES
1,< 20,Cc1ccc(-c2ccccc2)c(C(=O)N2CC3(CC3)C[C@H]2CNc2ccc(C(F)(F)F)cn2)n1
2,< 28,Cc1ccc(-c2ncccn2)c(C(=O)N2CC3(CC3)C[C@H]2CNc2ccc(C(F)(F)F)cn2)n1
3,< 20,Cc1nc(C(=O)N2CC3(CC3)C[C@H]2CNc2ccc(C(F)(F)F)cn2)c(-c2ccccc2)s1

# System: not listed separately
# Assay: Plasma clearance in rat at 1 mg/kg, iv
# Type: ADME, organism-based
# Parameters: dose 1 mg/kg, route intravenous
# Conditions: not given
row,clearance [mL/min/kg],SMILES
1,61.3,Cc1ccc(-c2ccccc2)c(C(=O)N2CC3(CC3)C[C@H]2CNc2ccc(C(F)(F)F)cn2)n1
2,47.5,Cc1ccc(-c2ncccn2)c(C(=O)N2CC3(CC3)C[C@H]2CNc2ccc(C(F)(F)F)cn2)n1
3,55.2,Cc1nc(C(=O)N2CC3(CC3)C[C@H]2CNc2ccc(C(F)(F)F)cn2)c(-c2ccccc2)s1

# System: not listed separately
# Assay: Oral bioavailability in rat at 1 mg/kg
# Type: ADME, organism-based
# Conditions: in vivo
row,bioavailability [%],SMILES
1,11,Cc1ccc(-c2ccccc2)c(C(=O)N2CC3(CC3)C[C@H]2CNc2ccc(C(F)(F)F)cn2)n1
2,33,Cc1ccc(-c2ncccn2)c(C(=O)N2CC3(CC3)C[C@H]2CNc2ccc(C(F)(F)F)cn2)n1
3,20,Cc1nc(C(=O)N2CC3(CC3)C[C@H]2CNc2ccc(C(F)(F)F)cn2)c(-c2ccccc2)s1

# Target: T2, Cytochrome P450 3A4 (Homo sapiens, UniProt P08684)
# T2 sequence (P08684 whole entry): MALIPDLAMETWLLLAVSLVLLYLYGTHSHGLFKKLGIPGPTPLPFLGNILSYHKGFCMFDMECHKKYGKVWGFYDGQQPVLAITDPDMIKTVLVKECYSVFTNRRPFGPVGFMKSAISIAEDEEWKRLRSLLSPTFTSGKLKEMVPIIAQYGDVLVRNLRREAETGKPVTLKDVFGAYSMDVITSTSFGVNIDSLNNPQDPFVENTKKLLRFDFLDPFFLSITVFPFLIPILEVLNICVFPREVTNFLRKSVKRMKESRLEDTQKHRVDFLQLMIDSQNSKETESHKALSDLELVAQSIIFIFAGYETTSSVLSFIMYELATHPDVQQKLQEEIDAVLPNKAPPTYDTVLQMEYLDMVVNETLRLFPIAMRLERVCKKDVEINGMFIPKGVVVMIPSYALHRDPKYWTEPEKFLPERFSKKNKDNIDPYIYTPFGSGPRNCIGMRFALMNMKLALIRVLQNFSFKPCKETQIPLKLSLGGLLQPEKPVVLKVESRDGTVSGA
# Assay: Inhibition of human recombinant CYP3A4 using BFC as substrate by fluorimetric assay
# Type: ADME
# Conditions: not given
row,IC50 [µM],SMILES
1,64,Cc1ccc(-c2ccccc2)c(C(=O)N2CC3(CC3)C[C@H]2CNc2ccc(C(F)(F)F)cn2)n1
2,> 100,Cc1ccc(-c2ncccn2)c(C(=O)N2CC3(CC3)C[C@H]2CNc2ccc(C(F)(F)F)cn2)n1
3,> 100,Cc1nc(C(=O)N2CC3(CC3)C[C@H]2CNc2ccc(C(F)(F)F)cn2)c(-c2ccccc2)s1

# Target: T3, CYP2D6 (Homo sapiens, UniProt P10635)
# T3 sequence (P10635 whole entry): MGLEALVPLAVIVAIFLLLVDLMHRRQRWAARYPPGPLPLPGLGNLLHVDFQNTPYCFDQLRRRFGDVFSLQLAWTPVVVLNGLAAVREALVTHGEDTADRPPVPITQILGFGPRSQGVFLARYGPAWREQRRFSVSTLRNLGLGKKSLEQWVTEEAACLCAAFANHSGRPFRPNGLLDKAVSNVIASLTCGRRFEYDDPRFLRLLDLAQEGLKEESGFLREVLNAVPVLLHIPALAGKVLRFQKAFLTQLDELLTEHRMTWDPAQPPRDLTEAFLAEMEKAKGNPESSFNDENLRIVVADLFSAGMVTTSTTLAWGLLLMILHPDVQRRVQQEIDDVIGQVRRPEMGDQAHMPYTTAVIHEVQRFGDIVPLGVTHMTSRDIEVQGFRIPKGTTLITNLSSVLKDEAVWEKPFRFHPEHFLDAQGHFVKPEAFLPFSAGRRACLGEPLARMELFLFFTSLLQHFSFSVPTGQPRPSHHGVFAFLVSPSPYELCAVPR
# Assay: Inhibition of human recombinant CYP2D6 at 1 uM by fluorimetric assay
# Type: ADME
# Conditions: not given
row,inhibition at 1 µM [%],SMILES
1,< 20,Cc1nc(C(=O)N2CC3(CC3)C[C@H]2CNc2ccc(C(F)(F)F)cn2)c(-c2ccccc2)s1

# Target: T4, Orexin receptor type 2 (Homo sapiens) (UniProt O43614)
# T4 sequence (whole entry): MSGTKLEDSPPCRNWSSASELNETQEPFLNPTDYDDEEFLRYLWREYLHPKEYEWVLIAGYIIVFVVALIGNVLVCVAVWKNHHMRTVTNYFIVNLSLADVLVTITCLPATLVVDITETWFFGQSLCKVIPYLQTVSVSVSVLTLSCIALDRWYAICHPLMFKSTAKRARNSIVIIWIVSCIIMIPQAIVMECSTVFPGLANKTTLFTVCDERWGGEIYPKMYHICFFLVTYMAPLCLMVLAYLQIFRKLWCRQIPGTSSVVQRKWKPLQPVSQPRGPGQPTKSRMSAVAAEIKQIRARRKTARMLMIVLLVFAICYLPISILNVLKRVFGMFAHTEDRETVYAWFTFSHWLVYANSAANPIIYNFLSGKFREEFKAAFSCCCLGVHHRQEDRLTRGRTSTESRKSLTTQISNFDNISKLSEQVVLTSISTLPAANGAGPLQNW
# Assay: Antagonist activity at human recombinant OX2 receptor expressed in HEK293 cells assessed as OXB-stimulated intracellular calcium mobilization by FLIPR assay
# Type: functional, cell-based
# Conditions: not given
row,pKb,SMILES
1,8,Cc1ccc(-c2ccccc2)c(C(=O)N2CC3(CC3)C[C@H]2CNc2ccc(C(F)(F)F)cn2)n1
2,7.5,Cc1ccc(-c2ncccn2)c(C(=O)N2CC3(CC3)C[C@H]2CNc2ccc(C(F)(F)F)cn2)n1
3,7.7,Cc1nc(C(=O)N2CC3(CC3)C[C@H]2CNc2ccc(C(F)(F)F)cn2)c(-c2ccccc2)s1

# Target: T1, CYP2C19
# Assay: Inhibition of human recombinant CYP2C19 at 1 uM by fluorimetric assay
# Type: ADME
# Conditions: not given
row,inhibition at 1 µM [%],SMILES
1,< 20,Cc1nc(C(=O)N2CC3(CC3)C[C@H]2CNc2ccc(C(F)(F)F)cn2)c(-c2ccccc2)s1

# Target: T5, CYP1A2 (Homo sapiens, UniProt P05177)
# T5 sequence (P05177 whole entry): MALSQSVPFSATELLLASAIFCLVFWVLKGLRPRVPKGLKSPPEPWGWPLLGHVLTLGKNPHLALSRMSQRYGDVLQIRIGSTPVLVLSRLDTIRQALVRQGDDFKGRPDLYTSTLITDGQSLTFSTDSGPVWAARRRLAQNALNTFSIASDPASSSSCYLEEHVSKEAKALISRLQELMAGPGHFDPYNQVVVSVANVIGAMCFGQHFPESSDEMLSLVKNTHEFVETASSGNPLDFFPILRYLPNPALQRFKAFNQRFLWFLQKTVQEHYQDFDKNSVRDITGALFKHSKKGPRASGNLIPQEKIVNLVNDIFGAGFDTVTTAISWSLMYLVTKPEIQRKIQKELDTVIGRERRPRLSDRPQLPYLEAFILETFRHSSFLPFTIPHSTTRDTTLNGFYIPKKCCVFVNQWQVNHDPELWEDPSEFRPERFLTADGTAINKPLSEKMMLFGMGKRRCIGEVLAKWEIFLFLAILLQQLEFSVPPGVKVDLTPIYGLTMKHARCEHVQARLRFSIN
# Assay: Inhibition of human recombinant CYP1A2 at 3 uM by fluorimetric assay
# Type: ADME
# Conditions: not given
row,inhibition at 3 µM [%],SMILES
1,< 20,Cc1ccc(-c2ccccc2)c(C(=O)N2CC3(CC3)C[C@H]2CNc2ccc(C(F)(F)F)cn2)n1
2,< 28,Cc1ccc(-c2ncccn2)c(C(=O)N2CC3(CC3)C[C@H]2CNc2ccc(C(F)(F)F)cn2)n1
3,< 20,Cc1nc(C(=O)N2CC3(CC3)C[C@H]2CNc2ccc(C(F)(F)F)cn2)c(-c2ccccc2)s1

# Target: T3, CYP2D6
# Assay: Inhibition of human recombinant CYP2D6 at 3 uM by fluorimetric assay
# Type: ADME
# Conditions: not given
row,inhibition at 3 µM [%],SMILES
1,< 20,Cc1ccc(-c2ccccc2)c(C(=O)N2CC3(CC3)C[C@H]2CNc2ccc(C(F)(F)F)cn2)n1
2,< 28,Cc1ccc(-c2ncccn2)c(C(=O)N2CC3(CC3)C[C@H]2CNc2ccc(C(F)(F)F)cn2)n1
3,< 20,Cc1nc(C(=O)N2CC3(CC3)C[C@H]2CNc2ccc(C(F)(F)F)cn2)c(-c2ccccc2)s1

# Target: T6, Orexin/Hypocretin receptor type 1 (Homo sapiens) (UniProt O43613)
# T6 sequence (whole entry): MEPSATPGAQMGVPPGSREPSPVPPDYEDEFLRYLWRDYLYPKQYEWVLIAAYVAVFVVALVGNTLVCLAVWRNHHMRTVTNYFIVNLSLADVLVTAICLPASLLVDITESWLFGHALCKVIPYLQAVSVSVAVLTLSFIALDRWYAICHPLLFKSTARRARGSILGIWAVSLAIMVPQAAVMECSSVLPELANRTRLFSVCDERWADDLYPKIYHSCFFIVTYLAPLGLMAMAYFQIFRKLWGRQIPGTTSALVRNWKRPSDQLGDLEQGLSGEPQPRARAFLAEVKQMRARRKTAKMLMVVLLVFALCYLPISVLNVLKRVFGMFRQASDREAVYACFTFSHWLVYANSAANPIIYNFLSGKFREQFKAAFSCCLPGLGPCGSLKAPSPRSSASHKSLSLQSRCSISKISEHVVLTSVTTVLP
# Assay: Antagonist activity at human recombinant OX1 receptor expressed in CHO cells assessed as OXA-stimulated intracellular calcium mobilization by FLIPR assay
# Type: functional, cell-based
# Conditions: not given
row,pKb,SMILES
1,8.6,Cc1ccc(-c2ccccc2)c(C(=O)N2CC3(CC3)C[C@H]2CNc2ccc(C(F)(F)F)cn2)n1
2,8.4,Cc1ccc(-c2ncccn2)c(C(=O)N2CC3(CC3)C[C@H]2CNc2ccc(C(F)(F)F)cn2)n1
3,8.4,Cc1nc(C(=O)N2CC3(CC3)C[C@H]2CNc2ccc(C(F)(F)F)cn2)c(-c2ccccc2)s1

# Target: T7, CYP2C9 (Homo sapiens, UniProt P11712)
# T7 sequence (P11712 whole entry): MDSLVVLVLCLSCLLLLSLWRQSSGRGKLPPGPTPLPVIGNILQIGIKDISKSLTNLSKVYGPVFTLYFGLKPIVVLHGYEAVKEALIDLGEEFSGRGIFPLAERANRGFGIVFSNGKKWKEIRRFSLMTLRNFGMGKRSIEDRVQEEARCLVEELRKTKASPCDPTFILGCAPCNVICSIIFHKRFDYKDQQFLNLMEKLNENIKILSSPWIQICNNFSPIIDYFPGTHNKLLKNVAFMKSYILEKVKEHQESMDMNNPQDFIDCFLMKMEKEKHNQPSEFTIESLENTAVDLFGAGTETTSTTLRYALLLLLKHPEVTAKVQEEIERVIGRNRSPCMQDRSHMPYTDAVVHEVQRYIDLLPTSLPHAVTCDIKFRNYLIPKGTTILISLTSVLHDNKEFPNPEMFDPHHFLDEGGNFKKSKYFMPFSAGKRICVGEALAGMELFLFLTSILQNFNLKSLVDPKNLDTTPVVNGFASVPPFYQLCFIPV
# Assay: Inhibition of human recombinant CYP2C9 at 3 uM by fluorimetric assay
# Type: ADME
# Conditions: not given
row,inhibition at 3 µM [%],SMILES
1,< 20,Cc1ccc(-c2ccccc2)c(C(=O)N2CC3(CC3)C[C@H]2CNc2ccc(C(F)(F)F)cn2)n1
2,< 28,Cc1ccc(-c2ncccn2)c(C(=O)N2CC3(CC3)C[C@H]2CNc2ccc(C(F)(F)F)cn2)n1
3,< 20,Cc1nc(C(=O)N2CC3(CC3)C[C@H]2CNc2ccc(C(F)(F)F)cn2)c(-c2ccccc2)s1

# Target: T5, CYP1A2
# Assay: Inhibition of human recombinant CYP1A2 at 1 uM by fluorimetric assay
# Type: ADME
# Conditions: not given
row,inhibition at 1 µM [%],SMILES
1,< 20,Cc1nc(C(=O)N2CC3(CC3)C[C@H]2CNc2ccc(C(F)(F)F)cn2)c(-c2ccccc2)s1

# Target: T8, CYP3A4 (Homo sapiens, UniProt P08684)
# T8 sequence (P08684 whole entry): as the sequence (P08684 whole entry) above
# Assay: Inhibition of human recombinant CYP3A4 using BFC as substrate at 3 uM by fluorimetric assay
# Type: ADME
# Conditions: recombinant CYP3A4, probe BFC
row,inhibition at 3 µM [%],SMILES
1,< 20,Cc1ccc(-c2ccccc2)c(C(=O)N2CC3(CC3)C[C@H]2CNc2ccc(C(F)(F)F)cn2)n1
2,< 28,Cc1ccc(-c2ncccn2)c(C(=O)N2CC3(CC3)C[C@H]2CNc2ccc(C(F)(F)F)cn2)n1
3,< 20,Cc1nc(C(=O)N2CC3(CC3)C[C@H]2CNc2ccc(C(F)(F)F)cn2)c(-c2ccccc2)s1

# Target: T8, CYP3A4
# Assay: Inhibition of human recombinant CYP3A4 using DBF as substrate at 3 uM by fluorimetric assay
# Type: ADME
# Conditions: recombinant CYP3A4, probe DBF
row,inhibition at 3 µM [%],SMILES
1,< 20,Cc1ccc(-c2ccccc2)c(C(=O)N2CC3(CC3)C[C@H]2CNc2ccc(C(F)(F)F)cn2)n1
2,< 28,Cc1ccc(-c2ncccn2)c(C(=O)N2CC3(CC3)C[C@H]2CNc2ccc(C(F)(F)F)cn2)n1
3,< 20,Cc1nc(C(=O)N2CC3(CC3)C[C@H]2CNc2ccc(C(F)(F)F)cn2)c(-c2ccccc2)s1

# Target: T7, CYP2C9
# Assay: Inhibition of human recombinant CYP2C9 at 1 uM by fluorimetric assay
# Type: ADME
# Conditions: not given
row,inhibition at 1 µM [%],SMILES
1,< 20,Cc1nc(C(=O)N2CC3(CC3)C[C@H]2CNc2ccc(C(F)(F)F)cn2)c(-c2ccccc2)s1

# System: not listed separately
# Assay: Ratio of drug uptake from rat brain to plasma at 1 mg/kg, iv after 1 hr
# Type: ADME, organism-based
# Parameters: dose 1 mg/kg, route intravenous
# Conditions: read-out: BPR
row,Kp at 1 h,SMILES
1,0.4,Cc1ccc(-c2ccccc2)c(C(=O)N2CC3(CC3)C[C@H]2CNc2ccc(C(F)(F)F)cn2)n1
2,0.5,Cc1ccc(-c2ncccn2)c(C(=O)N2CC3(CC3)C[C@H]2CNc2ccc(C(F)(F)F)cn2)n1
3,0.6,Cc1nc(C(=O)N2CC3(CC3)C[C@H]2CNc2ccc(C(F)(F)F)cn2)c(-c2ccccc2)s1

# System: not listed separately
# Assay: Volume of distribution at steady state in rat
# Type: ADME, organism-based
# Conditions: in vivo, read-out: Vdss
row,Vd [L/kg],SMILES
1,4.4,Cc1ccc(-c2ccccc2)c(C(=O)N2CC3(CC3)C[C@H]2CNc2ccc(C(F)(F)F)cn2)n1
2,2,Cc1ccc(-c2ncccn2)c(C(=O)N2CC3(CC3)C[C@H]2CNc2ccc(C(F)(F)F)cn2)n1
3,3,Cc1nc(C(=O)N2CC3(CC3)C[C@H]2CNc2ccc(C(F)(F)F)cn2)c(-c2ccccc2)s1

# Target: T8, CYP3A4
# Assay: Inhibition of human recombinant CYP3A4 using BFC as substrate at 1 uM by fluorimetric assay
# Type: ADME
# Conditions: recombinant CYP3A4, probe BFC
row,inhibition at 1 µM [%],SMILES
1,< 20,Cc1nc(C(=O)N2CC3(CC3)C[C@H]2CNc2ccc(C(F)(F)F)cn2)c(-c2ccccc2)s1

# Target: T8, CYP3A4
# Assay: Inhibition of human recombinant CYP3A4 using DBF as substrate at 1 uM by fluorimetric assay
# Type: ADME
# Conditions: recombinant CYP3A4, probe DBF
row,inhibition at 1 µM [%],SMILES
1,< 20,Cc1nc(C(=O)N2CC3(CC3)C[C@H]2CNc2ccc(C(F)(F)F)cn2)c(-c2ccccc2)s1

# Target: T2, Cytochrome P450 3A4
# Assay: Time dependent inhibition of human recombinant CYP3A4 using BFC as substrate incubated for 30 mins prior to substrate addition
# Type: ADME
# Conditions: recombinant enzyme, 0.5 h
row,inhibition (INH),SMILES
1,Not Active,Cc1ccc(-c2ccccc2)c(C(=O)N2CC3(CC3)C[C@H]2CNc2ccc(C(F)(F)F)cn2)n1
2,Active,Cc1ccc(-c2ncccn2)c(C(=O)N2CC3(CC3)C[C@H]2CNc2ccc(C(F)(F)F)cn2)n1
3,Active,Cc1nc(C(=O)N2CC3(CC3)C[C@H]2CNc2ccc(C(F)(F)F)cn2)c(-c2ccccc2)s1
